According to patent US20230090691A1, “COMPOSITIONS AND METHODS FOR PROMOTING AND/OR MAINTAINING VAGINOVULVAL AND PERIANAL TISSUE VITALITY AND TISSUE HEALTH” (SPINART, LLC, priority 2021, published 2023):
Where “and” joins values, the source holds several entries; their conditions need not be identical. Identical values can stand only once. Entries after “also recorded” stand apart in the source; their conditions may differ.

Legend:
[1] = system: urogenital atrophy in breast cancer patients; conditions: study of 46 patients; compared to saline; cited from earlier work
[2] = system: human keratinocytes (HaCaT); assay: Wound-healing (scratch) assay; format: cell-based; conditions: for wound area Basal (0 h): 20 ng/ml wells, immediately after wounding; for wound area Basal (0 h) / % area wound 24 h / % relative Area to Control 24 h / % wound healing 24 h / wound area 24 h: replicates; for wound healing enhanced, compared to the untreated control / Decreased wound area / % area wound 24 h / % relative Area to Control 24 h / % wound healing 24 h / wound area 24 h: 20 ng/ml; for wound healing enhanced, compared to the untreated control: 24 hours; for Decreased wound area: 24 hr
Text: An in vitro scratch assay was used to study cell migration in vitro. [Todaro, G J et al. The initiation of cell division in a contact-inhibited mammalian cell line. J. Cell Physiol. (1965) 66: 325-33]. This method is based on the observation that, upon creation of a new artificial gap or “scratch”, on a confluent cell monolayer, the cells on the edge of the newly created gap will move toward the opening to close the “scratch” until new cell-cell contacts are established. One of the major advantages of this simple method is that it mimics to some extent migration of cell in vivo. For example, removal of part of the endothelium in blood vessels will induce migration of endothelial cells (ECs) into the denuded area to close the wound [Haudenschild, C. et al. Endothelial regeneration. II. Restitution of endothelial continuity. Lab. Invest. (1979) 41: 407-18]. Furthermore, the patterns of migration either as a loosely connected population (e.g., fibroblasts) or as sheets of cells (e.g., epithelial and EECs) also mimic the behavior of these cells during migration in vivo. The scratch assay is particularly suitable to study the regulation of cell migration by cell interaction with extracellular matrix (ECM) and cell-cell interactions.
For the wound-healing assay, HaCaT keratinocytes were seeded overnight in DMEM medium supplemented with 10% fetal bovine serum (FBS) at 80% confluence (190,000 cells per well. The next day, a 2 mm wound was made over the confluent monolayer using a 1 ml pipete tip. Test samples were added to the HaCaT cells, supplemented with 0.5% FBS. The untreated control was 0.5% FBS.
Images were taken before and after 24 hours of treatment, and wound area was quantified using ImageJ software. All data were statistically analyzed.
For seeding cells, cell numbers and viability were determined using Trypan-Blue staining; cells were counted in a Bürker chamber under the microscope. Human keratinocytes (HaCaT cells) were seeded overnight in DMEM medium supplemented with 10% fetal bovine serum (FBS).
Parallel lines were drawn at the bottom of the wells (3 mm separated lines outside the plate). These lines were used as boundaries for scratch images, thus providing an accurate analysis in each well. Cells were seeded at 190,000 cells/well to promote the formation of a monolayer and kept at 37 C for 24 h. Then, 2 mm-wide wounds were made in the confluent monolayer. Wells were washed once with PBS and refilled with DMEM+0.5% FBS. Basal images were taken immediately using a microscope. […] In addition, human epidermal growth factor (hEGF) at 20 ng/ml was included as a positive control, and 0.5% FBS as a basal control.
Plates were placed in the 37° C. incubator and incubated for 24 h to allow the scratch to heal. Microscopic images are shown below. One biological replicate was performed and four technical replicates per condition were used.
Data analysis was performed using ImageJ software. Microscopic images are shown in Results. Statistical analysis (ordinary one-way ANOVA test) was performed to determine the significance between tested samples and basal control.
The percentage of wound area in each well at 24 hr was calculated by dividing the wound area at 24 hr and the wound area immediately after making the wound. The mean value for the four replicates in the Basal Control (untreated) group was obtained and used to normalize each measure in all of the samples and conditions. A bar graph was generated to represent the wound area or wound healing in each of the tested conditions.

[3] = experiment with RS-0198A and RS-0198B

CCN(CC)CC(=O)Nc1c(C)cccc1C [lidocaine]
patients with reduced dyspareunia [1]: 90%

EGF: human epidermal growth factor, positive control at 20 ng/ml
wound area Basal (0 h) [2]: 1324098 pixels and 1346138 pixels and 1134400 pixels and 1741659 pixels
wound area Basal (0 h) ([2]; listed as C + EGF): 1188450 pixels and 1278864 pixels and 1237384 pixels and 1227903 pixels
wound healing enhanced, compared to the untreated control ([2]; experiment with RS012221): 94.0±8.6%
wound healing enhanced, compared to the untreated control [2, 3]: 60.4±15.7%
Decreased wound area ([2]; experiment with RS012221): 94.0±8.6%
Decreased wound area [2, 3]: 60.4 ± 15.7%
% area wound 24 h [2]: 19.877% and 29.524% and 18.706% and 6.405%
% relative Area to Control 24 h [2]: 42.310% and 62.846% and 39.818% and 13.633%
% wound healing 24 h [2]: 57.690% and 37.154% and 60.182% and 86.367%
wound area 24 h [2]: 263185 pixels and 397433 pixels and 212198 pixels and 111545 pixels
% area wound 24 h ([2]; listed as C + EGF): 27.291% and 2.058% and 0.000% and 5.244%
% relative Area to Control 24 h ([2]; listed as C + EGF): 89.630% and 6.758% and 0.000% and 17.222%
% wound healing 24 h ([2]; listed as C + EGF): 10.370% and 93.242% and 100.000% and 82.778%
wound area 24 h ([2]; listed as C + EGF): 24456 pixels and 0 pixels (2×) and 64389 pixels
wound area (result in words) ([2]; 24 hr treatment of HaCaT, compared to the untreated control): significantly decreased wound area
wound healing (result in words) ([2]; 24 h treatment of HaCaT, compared to untreated control, concentrations as in the sentence, listed as hEGF): enhanced wound healing; also recorded: boosted wound healing
